Holding throughout (assay): DTP human tumour cell line panel, 48 h
In test [1] the test system is OVCAR-5.
The subject of test [2] is CAKI-1.
Test [3] deals with COLO 205.
The subject of test [4] is RPMI-8226.
The subject of test [5] is Malme-3M.
The subject of test [6] is OVCAR-8.
In test [7] the test system is SF-268.
For test [8], the system named is SNB-19.
For test [9], the system named is UACC-257.
The subject of test [10] is SK-MEL-28.
Test [11] concerns K562.
Test [12] relates to TK-10.
For test [13], the system named is HCT-116.
Test [14] has as its system NCI-H226.
Test [15] concerns NCI-H23.
Test [16] deals with NCI-H460.
Test [17] deals with HOP-62.
Test [18] deals with HCT-15.
The subject of test [19] is CCRF-CEM.
For test [20], the system named is MOLT-4.

The structures appear in SMILES notation.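 In this assay, cells in 96-well plates receive the compound at five concentrations for 48 hours. Endpoints are linearly interpolated between the surrounding concentrations. GI50 = concentration required for 50% inhibition of growth.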 Activity calls are given as the source filed them. Rule as the data show it: active = GI50 up to about 1.1 µM and inactive = higher.

In the case of `COc1ccc2nc3n(c2c1)C(=O)c1ccccc1-3`, the GI50 in test [1], in test [2], in [3], in test [4], in test [5] and in test [6] was > 100 µM (inactive) each time. The GI50 in [7], in [8], in test [9], in test [10], in test [11] and in test [12] was > 100 µM (inactive) in each case. In addition, the GI50 in test [13] is > 100 µM (inactive); in test [14], > 100 µM (inactive); in test [15], > 100 µM (inactive); in test [16], > 100 µM (inactive); in test [17], > 100 µM (inactive); in test [18], above 100 µM. For the same compound, the GI50 in test [19] and in test [20] was > 100 µM (inactive) throughout.

`O=C1CN2C(Cl)(Cl)C2(c2ccccc2)c2cc(Cl)ccc2N1CC1CC1` (centres undefined): the GI50 in test [1] was 37.4 µM (inactive); in [2] it was 23.3 µM (inactive); in test [3], 19.9 µM (inactive); in test [4], 37.2 µM (inactive); in [5], 17.3 µM (inactive); in test [6] it was 14.6 µM (inactive). In addition, the GI50 in [7] is 29.3 µM (inactive); in test [9], 18.9 µM (inactive); in test [10], 17.3 µM (inactive); in [11], 31.5 µM (inactive); in test [12], 33.8 µM (inactive); in [13], 18.3 µM (inactive). Besides, the GI50 in test [14] is 21.3 µM (inactive); in [15], 25.2 µM (inactive); in [16], 16.3 µM (inactive); in test [17], 23.4 µM (inactive); in test [18], 19.3 µM; in [19] it was 27.2 µM (inactive). Moreover, in test [20], the GI50 is 24 µM (inactive).

Turning to `COc1ccccc1C(=O)NCC1CCCN2CCCCC12` (centres undefined), the GI50 in test [1], in [2], in [3], in test [4], in test [5] and in test [6] was > 100 µM (inactive) in each case. The GI50 in test [7], in [8], in [9], in test [10], in test [11] and in test [12] was > 100 µM (inactive) in each case. The GI50 in test [13] is > 100 µM (inactive); in test [14], > 100 µM (inactive); in test [15] it was > 100 µM (inactive); in test [16], > 100 µM (inactive); in test [17], > 100 µM (inactive); in [18], above 100 µM. In addition, the GI50 in test [19] and in test [20] was > 100 µM (inactive) in each case.

Regarding `CC(C)(C)C(=O)OCC1C(=O)OCC1C(=O)N1Cc2cc3ccccc3nc2C1` (centres undefined), the GI50 in test [1] was 10.5 µM (inactive); in test [2] it was 1.28 µM (inactive); in test [3], 0.957 µM (active); in test [4] it was 1.31 µM (inactive); in test [5] it was 1.46 µM (inactive); in test [6] it was 3.99 µM (inactive). Also, the GI50 in test [7] is 8.91 µM (inactive); in [8], 18.3 µM (inactive); in [9] it was 4.42 µM (inactive); in test [10], 3.21 µM (inactive); in [11], 0.728 µM (active); in [12], 2.15 µM (inactive). Besides, the GI50 in test [13] was 2.09 µM (inactive); in [14], 6.56 µM (inactive); in test [15], 4.55 µM (inactive); in test [16], 3.93 µM (inactive); in test [17] it was 14.4 µM (inactive); in [18] it was 1.75 µM. The GI50 is 0.711 µM (active) in test [19] and 1.06 µM (active) in [20].

For the compound `CN(C)c1ccc(/C=C2/SC(=S)NC2=O)cc1`, the GI50 in [1] was 21.9 µM (inactive); in test [2], > 100 µM (inactive); in [3], > 100 µM (inactive); in test [4], > 100 µM (inactive); in test [5], > 100 µM (inactive); in test [6], > 100 µM (inactive). Besides, the GI50 is > 100 µM (inactive) in test [7]; > 100 µM (inactive) in test [8]; > 100 µM (inactive) in test [9]; > 100 µM (inactive) in test [10]; > 100 µM (inactive) in [11]; 21.2 µM (inactive) in [12]. In addition, the GI50 in test [13] is 33.2 µM (inactive); in test [14], > 100 µM (inactive); in test [15] it was > 100 µM (inactive); in test [16] it was > 100 µM (inactive); in test [17] it was 52.2 µM (inactive); in [18] it was above 100 µM. Also, the GI50 in test [19] and in test [20] was > 100 µM (inactive) each time.

For the compound `CCCCC1(N=[N+]=[N-])C(=O)c2cccc3c2N(CCC3)C1=O` (centres undefined), the GI50 in [1], in test [2], in test [3], in test [4], in [5] and in test [6] was > 100 µM (inactive) in each case. Moreover, the GI50 in test [7], in test [8], in test [9], in test [10], in [11] and in [12] was > 100 µM (inactive) throughout. Moreover, the GI50 in test [13] is > 100 µM (inactive); in test [14], > 100 µM (inactive); in test [15] it was > 100 µM (inactive); in test [16] it was > 100 µM (inactive); in test [17] it was > 100 µM (inactive); in [18] it was above 100 µM. Besides, the figures for the GI50 in test [19] and in [20] were 91.6 µM (inactive) and > 100 µM (inactive), respectively.

With `Nc1cc2c(nc3c4ccccc4c(N)cc3[n+]2-c2cccc3ccccc23)c2ccccc12.Nc1cc2c(nc3c4ccccc4ccc3[n+]2-c2cccc3ccccc23)c2ccccc12`, the GI50 was 7.28 µM (inactive) in test [1]; 3.66 µM (inactive) in [2]; 1.93 µM (inactive) in [3]; 0.146 µM (active) in test [4]; 1.6 µM (inactive) in [5]; 0.714 µM (active) in [6]. For the same compound, the GI50 in test [7] was 3.37 µM (inactive); in test [8] it was 4.56 µM (inactive); in [9] it was 1.15 µM (inactive); in test [10], 7.06 µM (inactive); in [11] it was 0.448 µM (active); in test [12], 0.893 µM (active). In addition, the GI50 in test [13] was 1.67 µM (inactive); in test [14], 12.2 µM (inactive); in test [15] it was 1.15 µM (inactive); in test [16] it was 0.377 µM (active); in test [17] it was 2.81 µM (inactive); in test [18], 2.97 µM. The 50% growth inhibitory concentration (GI50) is 0.229 µM (active) in test [19] and 0.75 µM (active) in test [20].

A word on the GI50: it is the concentration that inhibits growth by half.

Source of the values: ChEMBL document CHEMBL1201862, “PubChem BioAssay data set” (2004).
